We go through 12 molecules from ChEMBL document CHEMBL1201862, “PubChem BioAssay data set” (2004).

The structures appear in SMILES notation.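 Test compounds were applied to cells in 96-well plates for 48 hours at 5 doses. Abbreviation: GI50, concentration required for 50% inhibition of growth.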 Calls of active or inactive are those of the source. No stated cut-off is given here; in the data, active = GI50 up to about 1.1 µM and inactive = higher.

Test systems include SF-295; ACHN; HOP-92; K562; NCI-H460; OVCAR-8; A498; IGROV-1; A549; SK-MEL-28; RXF 393; OVCAR-4; SN12C; SR; M14; MDA-N; NCI/ADR-RES; DU-145; MDA-MB-231; T47D.
Experiment in all cases: NCI anticancer screen, dose series, 48 h

For the molecule `Cc1ccc(C(=O)O/N=C2/CCC/C2=C\c2ccccc2)cc1`, the GI50 in the experiment with SF-295, with ACHN, in the experiment on HOP-92, in the experiment with K562, in the experiment on NCI-H460 and with OVCAR-8 was > 100 µM (inactive) throughout. Moreover, the GI50 in the experiment with A498, with IGROV-1, in the experiment with A549, in the experiment with SK-MEL-28, with RXF 393 and in the experiment on OVCAR-4 was > 100 µM (inactive) each time. The GI50 in the experiment with SN12C, in the experiment on SR and in the experiment on M14 was > 100 µM (inactive) each time.

Consider `C#CCN(N=O)C(=O)NCCCC(NC(C)=O)C(=O)NCc1ccccc1` (centres undefined), for which the GI50 in the experiment on SF-295 was > 100 µM (inactive); in the experiment on ACHN, 56.2 µM (inactive); in the experiment with HOP-92, > 100 µM (inactive); with K562, 43.3 µM (inactive); in the experiment on NCI-H460, 28.8 µM (inactive); with OVCAR-8, > 100 µM (inactive). The GI50 in the experiment on A498, with IGROV-1, with A549, in the experiment on SK-MEL-28, with RXF 393 and in the experiment with OVCAR-4 was > 100 µM (inactive) each time. The GI50 with SN12C was > 100 µM (inactive); in the experiment on SR it was 6.3 µM (inactive); in the experiment on M14, > 100 µM (inactive).

For `C[n+]1c(-c2ccccc2)cc2/c(=C\c3ccc([N+](=O)[O-])cc3)c3ccccc3n21`, the GI50 in the experiment on SF-295 is 3.21 µM (inactive); with ACHN, 3.1 µM (inactive); in the experiment on HOP-92, 1.66 µM (inactive); with NCI-H460, 1.45 µM (inactive); with MDA-N, 2.37 µM (inactive); with NCI/ADR-RES it was > 100 µM (inactive). Further, the GI50 is 1.66 µM (inactive) with OVCAR-8; 11 µM (inactive) in the experiment with A498; 1.39 µM (inactive) in the experiment with IGROV-1; 2.15 µM (inactive) with A549; 1.74 µM (inactive) in the experiment on DU-145; 3.24 µM (inactive) in the experiment on MDA-MB-231. Besides, the GI50 in the experiment on SK-MEL-28 is 7.41 µM (inactive); in the experiment with RXF 393, 4.45 µM (inactive); in the experiment with OVCAR-4, 26.1 µM (inactive); in the experiment with SN12C, 2.17 µM (inactive); in the experiment on M14 it was 5.24 µM (inactive).

Consider `COC1CC2CCC(C)[C@](O)(O2)C(=O)C(=O)N2CCCCC2C(=O)OC(C(C)CC2CCC(O)C(OC)C2)CC(=O)C(C)C=C(C)C(OC(=O)CN(C)C)C(OC)C(=O)C(C)CC(C)/C=C/C=C/C=C\1C` (some centres undefined), for which the GI50 is < 0.01 µM (active) in the experiment on SF-295; 0.0101 µM (active) with ACHN; < 0.01 µM (active) in the experiment on HOP-92; < 0.01 µM (active) in the experiment on K562; 6.22 µM (inactive) with NCI-H460; 0.403 µM (active) in the experiment on OVCAR-8. Also, the GI50 in the experiment with A498 was < 0.01 µM (active); with A549, 11 µM (inactive); with DU-145, 7.38 µM (inactive); with MDA-MB-231, 3.67 µM (inactive); with SK-MEL-28, 0.973 µM (active); in the experiment on RXF 393, < 0.01 µM (active). For the same molecule, the GI50 is < 0.01 µM (active) in the experiment on OVCAR-4, < 0.01 µM (active) in the experiment with SR, 7.43 µM (inactive) with M14 and < 0.01 µM (active) in the experiment on T47D.

Turning to `COC(=O)[C@@]12CCCC(=O)[C@@H]1[C@H]1CCCC[C@H]12`, the GI50 is > 100 µM (inactive) in the experiment on SF-295; > 100 µM (inactive) with ACHN; 32.1 µM (inactive) in the experiment on HOP-92; 35.8 µM (inactive) in the experiment on K562; > 100 µM (inactive) with NCI-H460; > 100 µM (inactive) with MDA-N. Also, the GI50 in the experiment on NCI/ADR-RES, with OVCAR-8, in the experiment with IGROV-1, in the experiment with A549, with DU-145 and in the experiment on MDA-MB-231 was > 100 µM (inactive) throughout. Moreover, the GI50 with SK-MEL-28, with RXF 393, in the experiment with OVCAR-4, with SN12C, with SR and in the experiment on M14 was > 100 µM (inactive) throughout.

In the case of `O=C1C=C(Br)C(=O)C(Br)=C1`, the GI50 in the experiment with SF-295 was > 100 µM (inactive); in the experiment on ACHN, > 85.5 µM (inactive); in the experiment on HOP-92, > 100 µM (inactive); in the experiment on K562, 33.3 µM (inactive); in the experiment on NCI-H460, > 100 µM (inactive); with OVCAR-8 it was > 100 µM (inactive). Also, the GI50 with A498, in the experiment with IGROV-1, in the experiment with A549, in the experiment on SK-MEL-28, in the experiment with RXF 393 and in the experiment on OVCAR-4 was > 100 µM (inactive) throughout. Besides, the GI50 in the experiment on SN12C is > 59.6 µM (inactive); in the experiment with SR, 31.8 µM (inactive); in the experiment on M14, > 100 µM (inactive).

As to `OCC[N+]12CCCN1CCC2`, the GI50 in the experiment on SF-295, in the experiment with ACHN, with HOP-92, in the experiment with K562, with NCI-H460 and with OVCAR-8 was > 100 µM (inactive) in each case. Besides, the GI50 with A498, in the experiment with IGROV-1, in the experiment with A549, in the experiment with SK-MEL-28, in the experiment with RXF 393 and in the experiment on OVCAR-4 was > 100 µM (inactive) throughout. In addition, the GI50 in the experiment on SN12C, in the experiment with SR and in the experiment with M14 was > 100 µM (inactive) each time.

Regarding `COc1cc(/C=C\c2ccccc2)cc(OC)c1OC`, the GI50 is 2.18 µM (inactive) in the experiment on SF-295; 6.98 µM (inactive) with ACHN; 3.53 µM (inactive) in the experiment with HOP-92; 0.514 µM (active) in the experiment on K562; 2.55 µM (inactive) in the experiment with NCI-H460; 3.69 µM (inactive) in the experiment with OVCAR-8. Moreover, the GI50 with A498 was 5.24 µM (inactive); in the experiment on IGROV-1, 4.65 µM (inactive); in the experiment on A549, 5.28 µM (inactive); in the experiment on SK-MEL-28 it was 6.28 µM (inactive); in the experiment on RXF 393 it was 1.84 µM (inactive); with OVCAR-4, 6.46 µM (inactive). Besides, the GI50 in the experiment with SN12C is 5 µM (inactive); in the experiment on SR it was 3.71 µM (inactive); in the experiment with M14, 2.51 µM (inactive).

As for `CCOC(=O)c1c(OCC)[nH]c(=O)c(C(c2cccs2)c2c(O)c(C(=O)OCC)c(OCC)[nH]c2=O)c1O`, the GI50 was 12 µM (inactive) in the experiment on SF-295; 12.8 µM (inactive) in the experiment on ACHN; 9.42 µM (inactive) in the experiment with HOP-92; 13.3 µM (inactive) in the experiment with NCI-H460; 27.4 µM (inactive) in the experiment with NCI/ADR-RES; 12.6 µM (inactive) in the experiment on OVCAR-8. For the same molecule, the GI50 in the experiment on A498 is 2.67 µM (inactive); in the experiment on IGROV-1, 13.9 µM (inactive); in the experiment with A549, 14.5 µM (inactive); with DU-145, 13.9 µM (inactive); in the experiment with MDA-MB-231, 11.1 µM (inactive); in the experiment on SK-MEL-28, 13.1 µM (inactive). Besides, the GI50 with RXF 393 is 1.7 µM (inactive); in the experiment with OVCAR-4 it was 17.6 µM (inactive); in the experiment with SN12C it was 15.4 µM (inactive); with M14 it was 16.1 µM (inactive); in the experiment on T47D, 0.0989 µM (active).

For the molecule `CCCCCCCC(=O)OC(CBr)COC(=O)C(C)(C)C` (centres undefined), the GI50 with SF-295 is > 100 µM (inactive); with ACHN, > 100 µM (inactive); in the experiment on HOP-92 it was > 95.5 µM (inactive); in the experiment with K562 it was 32.5 µM (inactive); in the experiment with NCI-H460, > 100 µM (inactive); with OVCAR-8, > 100 µM (inactive). Besides, the GI50 with A498 is > 100 µM (inactive); with IGROV-1 it was > 100 µM (inactive); with A549, > 100 µM (inactive); with SK-MEL-28 it was > 100 µM (inactive); in the experiment on RXF 393, > 100 µM (inactive); in the experiment with OVCAR-4, > 95.1 µM (inactive). For the same molecule, the GI50 in the experiment on SN12C is > 100 µM (inactive); in the experiment with SR it was 22.1 µM (inactive); in the experiment on M14 it was > 100 µM (inactive).

Regarding `c1coc(CNc2[nH]cnc3nncc2-3)c1`, the GI50 in the experiment on SF-295 is > 100 µM (inactive); in the experiment with ACHN it was > 100 µM (inactive); in the experiment with HOP-92, 35.8 µM (inactive); with K562, 57.8 µM (inactive); with NCI-H460 it was > 100 µM (inactive); in the experiment with OVCAR-8, > 100 µM (inactive). The GI50 in the experiment on A498, in the experiment on IGROV-1, with A549, in the experiment on SK-MEL-28, in the experiment with RXF 393 and in the experiment with OVCAR-4 was > 100 µM (inactive) throughout. Besides, the GI50 in the experiment on SN12C was > 100 µM (inactive); in the experiment with SR, 57.1 µM (inactive); in the experiment on M14 it was > 100 µM (inactive).

`O=C(Cn1cc(-c2ccccc2)nn1)NC1CCCCC1`: the GI50 in the experiment with SF-295, in the experiment with ACHN, in the experiment with HOP-92, in the experiment on K562, in the experiment on NCI-H460 and in the experiment with NCI/ADR-RES was > 100 µM (inactive) throughout. Further, the GI50 with OVCAR-8, in the experiment with IGROV-1, in the experiment with A549, in the experiment on DU-145, in the experiment with MDA-MB-231 and with SK-MEL-28 was > 100 µM (inactive) throughout. Moreover, the GI50 in the experiment on OVCAR-4, in the experiment on SN12C, in the experiment with SR and with M14 was > 100 µM (inactive) throughout.
